Read-outs that look alike come from different tables or passages of the source.
Legend:
[1] = tested on: CCM3 knock out cells; type: cell-based, mouse
Experimental: Cells were seeded 6.3×10^4 cells/cm^2. The day after, PTC209 and UNC1999 were added to the confluent cells. Drugs were left for one or three days depending on the aim of the experiment. Final concentrations used for the two drugs were: 1 uM PTC209 and 5 uM UNC1999.
For immunofluorescence, cells were fixed in three different ways: with 4% PAF in PBS (followed by permeabilization with 0.5% Triton X-100 for 5 minutes); with 1% PAF in triethanolamine pH 7.5, containing 0.1% Triton X-100 and 0.1% NP-40 for 10 minutes at RT or in methanol for 5 minutes at […]. Blocking (1 hour, RT) were performed in PBS containing 2% BSA and 5% donkey serum. Primary (overnight, 4° C.) and secondary (50 minutes, RT) antibodies were incubated in PBS with 2% BSA.
To check the effect of Bmi1 on junctional organisation, both wild type and CCM3 knock out cells were treated with PTC209 with the same experimental conditions described before and subsequently analysed by immunofluorescence. In particular cells were stained for VE-cadherin and PECAM1 (FIG. 7).
Experiment with combined PTC209 and UNC1999 treatments was repeated with the same experimental conditions described before and junction organisation was analysed through VE-cadherin staining and protein expression analysis (FIG. 19).

[2] = tested on: EndMT markers (Klf4, Sca1 and Fsp1); test: RT-PCR of EndMT markers in wild type cells infected with lentivirus expressing LefΔN-β-catΔC; type: cell-based, mouse; details: wild type cells infected with 40 ul LefΔN-β-catΔC lentivirus; PTC209 72 hours from nine days after infection
Experimental: (§1) RNA extraction was performed both with (A) RNeasy kits (Promega) or (B) RNAeasy Mini Kit (QIAGEN). The latter allows also the extraction of proteins from the same sample. The RNA (500 ng) was reverse transcribed with random hexamers (High Capacity cDNA Archive kits; Applied Biosystems) in a final volume of 30 uL. Reaction were made with a thermocycler (Eppendorf) 10 min at 25° C. followed by 2 hours at 37° C. cDNA (5 ng) was amplified in triplicate in a reaction volume of 15 uL using TaqMan Gene Expression Assays (Applied Biosystems) in a ABI/Prism 7900 HT using a pre PCR step of 10 min at 95° C., followed by 40 cycles of 15 seconds at 95° C. and 60 seconds at 60° C. For each sample, the expression level was determined with the comparative threshold cycle (Ct) method, and normalized to the housekeeping genes encoding 18S, glyceraldehyde-3-phosphate dehydrogenase (GAPDH) and hypoxanthine-guanine phosphoribosyltransferase (hprt1). Ct or threshold cycle, represents the PCR cycle at which an increase in reporter fluorescence above a base-line signal can first be detect.
One day before infection, 300.000 cells/well were seeded in a 6-wells plate in complete medium as described before.
The day after 40 uL per well of the concentrated virus was added to the cells medium and leaved overnight at 37° C. […]

[3] = tested on: VE-cadherin; test: Real time analysis of VE-cadherin transcript, CCM3 knock out cells; type: cell-based, mouse; details: PTC209
Experimental: as §1
Western blot and real time analysis of VE-cadherin were performed in parallel to confirm the reduction of VE-cadherin observed by immunofluorescence (FIG. 8A-C). VE-cadherin protein and transcript levels, as expected, were reduced in CCM3 knock out cells compare to wild type, as already shown (Bravi et al., 2015).

[4] = biological target: T1, Bmi1 (Mus musculus, UniProt P25916); test: Western blot analysis of Bmi1, wild type and CCM3 knock out immortalized lung endothelial cells; type: cell-based; details: 24 hours of treatment, 1 uM PTC209 vs DMSO
T1 construct: western blot analysis of Bmi1 on lysates from confluent wild type (WT) and CCM3 knockout (CCM3-KO) cells treated with PTC209; endogenous in cells; host or cells: immortalized mouse lung endothelial cells, wild type and CCM3 knock out (VECPAC/CCM3 fl/fl, TAT-Cre)
T1 sequence (P25916 1-324): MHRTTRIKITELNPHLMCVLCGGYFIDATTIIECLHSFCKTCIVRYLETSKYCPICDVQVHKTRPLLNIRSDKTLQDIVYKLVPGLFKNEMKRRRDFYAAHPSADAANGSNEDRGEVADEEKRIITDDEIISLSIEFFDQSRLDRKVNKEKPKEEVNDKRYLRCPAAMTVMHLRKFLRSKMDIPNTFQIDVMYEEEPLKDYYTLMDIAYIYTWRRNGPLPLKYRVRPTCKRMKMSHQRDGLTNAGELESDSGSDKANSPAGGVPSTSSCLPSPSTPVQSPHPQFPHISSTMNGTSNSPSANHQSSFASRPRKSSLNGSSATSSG
Experimental: Confluent cells were lysed with boiling modified Laemi sample Buffer (2% SDS, 20% glycerol, and 125 mM Tris-HCl, pH 6.8). Lysates were incubated for 10 minutes at 100° C. to allow proteins denaturation. Protein concentration was estimated using the BCA Protein Assay Kit (Pierce). Equal amount of proteins was loaded on a gel, separated by SDS-PAGE and transferred to a Protran Nitrocellulose Membrane (Whatman) 0.2 um pores. The membranes were blocked for 1 hour at RT in Tris Buffered Saline (TBS: NaCl 150 mM, Tris-HCl 10 mM pH 7.4) plus 0.1% Tween-20 containing 5% BSA or milk. The membranes were incubated with primary antibodies diluted in TBST (TBS plus 0.1% Tween-20) containing 5% of either BSA or milk overnight at 4° C. Next, membranes were rinsed three times with TBST for 5 minutes each and incubated for 45 minutes at RT with HRP-linked secondary antibodies diluted in TBST containing 5% BSA/milk. Membranes were rinsed three times with TBST for 5 minutes each and specific bindings were detected by enhanced chemiluminescence (ECL) system (Amersham Bioscience) using ChemiDoc XRS gel imaging system (Bio-Rad).
CCM3 knock out cells were immortalized lung endothelial cells derived from VECPAC/CCM3^fl/fl mice, treated with TAT-Cre recombinase. […] As control the same cell line without TAT-Cre treatment were used. […]

## COc1cc(Br)c(Nc2nc(-c3c(C)nc4ncccn34)cs2)c(Br)c1 [PTC209, N-(2,6-dibromo-4-methoxyphenyl)-4-(2-methylimidazo[1,2-a]pyrimidin-3-yl)thiazol-2-amine]
[1]; CCM3 knock out cells
  junctional organisation (VE-cadherin, PECAM1 immunostaining): did not rescue junctional disorganisation
[1]; wild type cells, CCM3 model
  junctional organisation (VE-cadherin, PECAM1 immunostaining): did not disturb junction organisation
[2]
  Sca1 and Fsp1 upregulation (RT-PCR): strongly reduced
[3]
  VE-cadherin transcript level (real time analysis): did not rescue
[4]; CCM3 knock out cells
  Bmi1 protein expression (western blot): downregulation of Bmi1
[4]; wild type cells
  Bmi1 protein expression (western blot): downregulation of Bmi1
